Read-outs that look alike come from different tables or passages of the source.
Key:
A549 = assay: Mammalian cell line specificity assay (alamar blue); type: cell-based, human; conditions: Table S1; PMLSC library samples; read-out: EC50 Ave ± SD, A549
Protocol: Mammalian cells were cultured and maintained according to ATCC specifications (ATCC, Manassas, VA). Cell line drug susceptibility assays were performed in final volumes of 25 µL using our previously described 384-well microtiter plate format,[39]. […] Test and control compounds were added to individual wells as described above. Vehicle and positive controls were 1% DMSO and 10% DMSO, respectively (final well concentrations). Assay plates were incubated for 44–46 h at 37°C in the presence of 5% CO2 and growth inhibitory effects were determined as described above. Five µL of alamar blue reagent was added to each well and incubated for 2–4 h. Data were captured as described above.

L. major promastigotes = assay: L. major promastigote drug susceptibility assay (alamar blue, 384-well); type: cell-based, Leishmania major; conditions: for primary hit (≥50% inhibition of signal readout): single concentration 10 µM, LOPAC, UP-CMLD DP validation set or PMLSC library
Protocol: Promastigotes were grown in vented T75 tissue culture flasks and maintained at 28°C. Promastigote cultures were initiated at 10^5 parasites per mL and subcultured every 3–4 days. L. major promastigote counts were performed in duplicate using a hemocytometer and particle counter (Beckman Coulter, Fullerton, CA). For HTS assays, L. major promastigote cultures were harvested during exponential growth phase (∼2.0–3.0×10^7 parasites/mL) and were not maintained past passage 20.
The final test compound concentration was 10 µM with a constant DMSO concentration of 1% in each assay well.
The L. major promastigote drug susceptibility assay was performed in a final volume of 25 µL using our previously described 384-well microtiter plate format,[39]. For automated HTS procedures, L. major promastigotes (5,000 parasites/22 µL) in complete growth medium were seeded into each well of the microtiter plates using a MAPC2 bulk dispenser (Titertek, Huntsville, AL). Test and control compounds (3 µL) were added to individual wells using a Velocity 11 V-prep (Menlo Park, CA) liquid handling system, equipped with a 384-well dispensing head, followed by centrifugation at 50 g for 1 min. […] Assay plates were allowed to incubate for 44 h at 28°C in the presence of 5% CO2. Five µL of alamar blue reagent were added to each assay plate well and incubated for 4 h at 28°C with 5% CO2. Data were captured on a Molecular Devices SpectraMax M5 (excitation560; emission590). Individual assay plate Z-factors were derived from the vehicle and positive controls, and data from plates were used only if Z-factors were >0.5 [50].
The assays were performed in duplicate with a final 10-point concentration range spanning 0.01–5.00 µM.

[1] = Table S1, PMLSC library samples, 10-point 0.01–5.00 µM, read-out: EC50 Ave ± SD, Lm
[2] = Leishmania major, assay optimization, 384-well format, read-out: EC50, L. major promastigotes, known leishmanicidals

Compound	EC50 (A549) [nM]	EC50 (L. major promastigotes; [1]) [nM]	primary hit (≥50% inhibition of signal readout) (L. major promastigotes)	EC50 (L. major promastigotes; [2]) [nM]	EC50 (L. major promastigotes; assay optimization, 384-well format, read-out: EC50, L. major promastigotes, known leishmanicidals) [nM]
CN(C)C(=S)SSC(=S)N(C)C [CID 5455]	750 ± 2	98 ± 12	–	–	–
Nc1cccc2nc3ccccc3cc12 [CID 11352]	4700 ± 311	635 ± 26	–	–	–
Nc1nsc2ccccc12 [CID 89966]	> 5000	392 ± 40	–	–	–
O=[N+]([O-])c1cc(-c2nnc(C34CC5CC(CC(C5)C3)C4)o2)cc([N+](=O)[O-])c1 [CID 380438]	> 5000	117 ± 22	–	–	–
CN(C)C(=O)c1ccc[n+](CC(=O)Nc2ccc(Cl)cc2)c1 [CID 422270]	2920 ± 320	289 ± 44	–	–	–
Cc1nc2c(=O)n(C)c(=O)nc-2n(C)n1 [CID 460747]	158 ± 18	202 ± 11	–	–	–
COc1ccc2cc3[n+](cc2c1OC)CCc1cc2c(cc1-3)OCO2 [CID 629413]	> 5000	379 ± 77	–	–	–
COc1ccc2c3c(cccc13)NN=C2C [CID 644992]	> 5000	255 ± 21	–	–	–
Cc1nnc(Nc2ccccn2)c2ccccc12 [CID 645317]	> 5000	723 ± 24	–	–	–
[O-][N+]1=c2ccc(Nc3ccccc3)cc2=NC12CCCCC2 [CID 657546]	> 5000	845 ± 136	–	–	–
Cc1c(Cl)sn(-c2ccc(Cl)cc2)c1=O [CID 759209]	2580 ± 185	545 ± 118	–	–	–
COc1ccc(S(=O)(=O)Nc2ccc(O)c3ccccc23)cc1 [CID 871185]	> 5000	287 ± 145	–	–	–
O=C(Nc1ccc(Cl)cn1)c1ccc([N+](=O)[O-])o1 [CID 952234]	4080 ± 352	205 ± 21	–	–	–
O=c1c(Cl)nc2cc(Cl)ccc2n1CCNc1ncc(C(F)(F)F)cc1Cl [CID 1471937]	4310 ± 540	513 ± 52	–	–	–
COc1ccc(NC(=O)/C(Cl)=C(/Cl)[S+]([O-])Cc2ccccc2Cl)cn1 (stereo not shown) [CID 1475345]	955 ± 25	242 ± 29	–	–	–
Cc1cc(C(=O)CCl)c(C)n1Cc1ccco1 [CID 1537038]	> 5000	784 ± 36	–	–	–
CCOC(=O)c1c2c(n(C)c1C)C(=O)C(=O)c1ccc(Br)cc1-2 [CID 1736381]	613 ± 109	87 ± 21	–	–	–
CCOC(=O)C(=Cc1cc(=O)c(OC)co1)C(=O)OCC [CID 1811924]	> 5000	166 ± 9	–	–	–
COc1ccccc1-n1cnc2c(c1=O)c1nc3ccccc3nc1n2-c1ccc(C)c(C)c1 [CID 1987332]	> 5000	85 ± 5	–	–	–
Fc1cccc(-c2nnn3c2nc(Cl)c2ccccc23)c1 [CID 2137463]	> 5000	499 ± 135	–	–	–

Compound	EC50 (A549) [nM]	EC50 (L. major promastigotes; [1]) [nM]	primary hit (≥50% inhibition of signal readout) (L. major promastigotes)	EC50 (L. major promastigotes; [2]) [nM]	EC50 (L. major promastigotes; assay optimization, 384-well format, read-out: EC50, L. major promastigotes, known leishmanicidals) [nM]
O=S(=O)(CCSc1nc2ccccc2s1)c1nc2ccccc2s1 [CID 2194030]	> 5000	718 ± 86	–	–	–
CC(C)(C)c1ccc(-n2nc(C#N)c(Cl)cc2=O)cc1 [CID 2766929]	3550 ± 582	767 ± 160	–	–	–
CCCCCCCCCCCCCCCCn1cc[n+](C)c1 [CID 2846928]	1640 ± 59	35 ± 1	–	–	–
CCCOC(=O)CSC1=C(C#N)C(c2ccccc2Cl)CC(=O)N1 (stereo not shown) [CID 2855568]	> 5000	122 ± 12	–	–	–
CCc1ccc(NSc2ccccc2[N+](=O)[O-])cc1 [CID 2856077]	> 5000	751 ± 110	–	–	–
COCCCNCCCCOc1ccc(Br)cc1Cl [CID 2923184]	> 5000	60 ± 0.1	–	–	–
O=C1CC(c2ccccc2Br)c2cc3c(cc2N1)CCC3 (stereo not shown) [CID 2937831]	> 5000	255 ± 48	–	–	–
COc1cc(CNCc2cccs2)ccc1OCc1ccccc1 [CID 2964134]	> 5000	164 ± 42	–	–	–
COc1ccc(C2=NCC(CSc3nnc(-c4ccc5c(c4)OCO5)o3)S2)cc1 (stereo not shown) [CID 2999476]	> 5000	187 ± 26	–	–	–
O=[N+]([O-])c1ccc(NNC(=S)Nc2ccc(F)cc2)cc1 [CID 3127155]	> 5000	452 ± 74	–	–	–
CCCc1nc2c(=O)n(C)c(=O)nc-2n(C)n1 [CID 3164059]	1060 ± 156	218 ± 54	–	–	–
COC(=O)c1cc2ccsc2n1Cc1nc(-c2ccc(OC)cc2)oc1C [CID 3236501]	> 5000	105 ± 10	–	–	–
COC(=O)CNc1nc(-c2ccccc2F)nc2ccccc12 [CID 3237155]	> 5000	743 ± 62	–	–	–
O=C(NCC(c1cccnc1)N1CCN(c2ccc(F)cc2)CC1)Oc1ccccc1 (stereo not shown) [CID 3242548]	> 5000	111 ± 10	–	–	–
CCC(C)(c1nnnn1-c1c(C)cccc1C)N(N=O)c1ccccc1Cl (stereo not shown) [CID 3521510]	> 5000	326 ± 40	–	–	–
N#CC(c1ccc(Cl)cc1)c1ccc2c(C(F)(F)F)cc(C(F)(F)F)nc2n1 (stereo not shown) [CID 3564202]	2110 ± 77	565 ± 35	–	–	–
COC(=O)C1CN(C#N)N(c2ccc(Cl)cc2)C12c1ccccc1-c1ccccc12 (stereo not shown) [CID 3609942]	2750 ± 73	73 ± 13	–	–	–
CN(C)c1cc(NN=Cc2ccc(Cl)cc2)nc(N(C)C)n1 [CID 3769434]	> 5000	504 ± 66	–	–	–
Cc1ccccc1-n1ncc2c([N+](=O)[O-])cc([N+](=O)[O-])cc21 [CID 3932660]	> 5000	61 ± 4	–	–	–
O=C(c1cccnc1)N(c1cc2sc(=O)oc2c2ccccc12)S(=O)(=O)c1ccccc1 [CID 3980962]	> 5000	192 ± 2	–	–	–

Compound	EC50 (A549) [nM]	EC50 (L. major promastigotes; [1]) [nM]	primary hit (≥50% inhibition of signal readout) (L. major promastigotes)	EC50 (L. major promastigotes; [2]) [nM]	EC50 (L. major promastigotes; assay optimization, 384-well format, read-out: EC50, L. major promastigotes, known leishmanicidals) [nM]
Cc1ccc2nc(Cl)c3nnnn3c2c1 [CID 4202676]	> 5000	767 ± 76	–	–	–
COC(=O)c1cccc(Cn2c(Cl)c(C=NNc3ccccc3C)sc2=O)c1 [CID 4271960]	> 5000	545 ± 193	–	–	–
Cc1nc([N+](=O)[O-])nn1C12CC3CC(CC(Cl)(C3)C1)C2 [CID 5032706]	> 5000	856 ± 33	–	–	–
CC1=C(C(=O)Nc2cc(-c3cccc(F)c3)[nH]n2)C2(CCCCC2)OC1=O [CID 5309827]	> 5000	382 ± 56	–	–	–
CCOC(=O)N=Nc1c2ccccc2c2nc3no[nH]c3nc12 [CID 5833488]	151 ± 10	788 ± 114	–	–	–
COC(=O)c1ccc(-c2ccc(CNCC(O)c3ccccc3)o2)cc1 (stereo not shown) [CID 6602747]	> 5000	104 ± 27	–	–	–
CC(C)CCN(C)C1CCN(S(=O)(=O)c2cccc(C(F)(F)F)c2)CC1 [CID 6602880]	> 5000	10 ± 3	–	–	–
N=c1c2c(n(Cc3ccccc3)c3c1CCC3)CCC2 [CID 6603247]	> 5000	83 ± 5	–	–	–
O=C1C2CCN(CC2)C1Cc1ccc(OCCOc2ccccc2)cc1 (stereo not shown) [CID 6603672]	> 5000	274 ± 51	–	–	–
Clc1ccccc1C(c1ccccc1)(c1ccccc1)n1ccnc1 [Clotrimazole, reference compound]	–	–	primary hits	–	–
COc1ccc2cc3[n+](cc2c1OC)CCc1cc2c(cc1-3)OCO2 [berberine, reference compound]	–	–	primary hits	–	–
CC(=O)N1CCN(c2ccc(OCC3COC(Cn4ccnc4)(c4ccc(Cl)cc4Cl)O3)cc2)CC1 (stereo not shown) [ketoconazole, reference compound]	–	–	primary hits	–	–
COc1c(C)c2c(c(O)c1C/C=C(\C)CCC(=O)O)C(=O)OC2 [mycophenolic acid, reference compound]	–	–	primary hits	–	–
O=C(Nc1ccc([N+](=O)[O-])cc1Cl)c1cc(Cl)ccc1O [niclosamide, reference compound]	–	–	primary hits	–	–
NC[C@@H]1O[C@H](O[C@H]2[C@@H](O)[C@H](O[C@@H]3[C@@H](O)[C@H](N)C[C@H](N)[C@H]3O[C@H]3O[C@H](CO)[C@@H](O)[C@H](O)[C@H]3N)O[C@@H]2CO)[C@H](N)[C@@H](O)[C@@H]1O [paromomycin, reference compound]	–	–	–	19700 ± 600	–
N=C(N)c1ccc(OCCCCCOc2ccc(C(=N)N)cc2)cc1 [pentamidine, reference compound]	–	–	–	360 ± 20	–
CCN(CC)CCCC(C)Nc1c2ccc(Cl)cc2nc2ccc(OC)cc12 (stereo not shown) [quinacrine, reference compound]	–	–	primary hits	–	–
O=C(O)[C@@H]1[O][Sb](=[O])([O][Sb]2(=[O])[O][C@H]([C@H](O)CO)[C@H](O)[C@H](C(=O)O)[O]2)[O][C@H]([C@H](O)CO)[C@@H]1O.[Na+].[Na+].[Na+] (stereo partly shown) [sodium stibogluconate, reference compound]	–	–	–	–	> 100000
CC/C(=C(\c1ccccc1)c1ccc(OCCN(C)C)cc1)c1ccccc1 [tamoxifen, reference compound]	–	–	primary hits	–	–
ivermectin [reference compound]	–	–	primary hits	–	–
